# Laboratory results taken from ChEMBL document CHEMBL1201862, “PubChem BioAssay data set” (2004).
#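 Interpolation was linear, between the two tested concentrations surrounding the appropriate level; five concentrations were tested over 48 hours in 96-well plates. GI50 marks 50% less growth.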 The source made the active and inactive calls. Rule as the data show it: active = GI50 up to about 1.1 µM and inactive = higher.
# Legend:
# Assay in all cases: NCI anticancer screen, dose series, 48 h
# [1] = test system: DMS-273
# [2] = test system: RXF 631
# [3] = test system: XF498
# [4] = test system: DMS-114
# [5] = test system: LXFL 529
# [6] = test system: HOP-18
# [7] = test system: M19-MEL
# [8] = test system: DLD-1
# [9] = test system: KM-20L2
SMILES,GI50 [1],GI50 [2],GI50 [3],GI50 [4],GI50 [5],GI50 [6],GI50 [7],GI50 [8],GI50 [9]
CN(C)c1[se]nc2c1c(=O)n(C)c(=O)n2C,> 100 µM (inactive),> 100 µM (inactive),> 100 µM (inactive),> 100 µM (inactive),> 100 µM (inactive),19.4 µM (inactive),> 100 µM (inactive),> 100 µM (inactive),> 100 µM (inactive)
CN(C)CCNC(=O)c1cccc2ccc(-c3ccc(-c4ccccc4)cc3)nc12,1.69 µM (inactive),1.76 µM (inactive),,1.7 µM (inactive),1.83 µM (inactive),12.9 µM (inactive),1.81 µM (inactive),2.45 µM (inactive),1.98 µM (inactive)
O=C1Nc2ccccc2/C1=N/NC(=O)c1ccccc1O,,,,43.4 µM (inactive),41.3 µM (inactive),56 µM (inactive),53 µM (inactive),29.3 µM (inactive),> 100 µM (inactive)
CCN(CC)c1ccc(/N=C2/C=CC(=O)c3ncccc32)c(C)c1,8.3 µM (inactive),14.2 µM (inactive),2.02 µM (inactive),3.9 µM (inactive),2.48 µM (inactive),10.5 µM (inactive),10.4 µM (inactive),3.42 µM (inactive),13.5 µM (inactive)
CC1CCP(=O)(c2ccccc2)CC1 (stereo unspecified),> 100 µM (inactive),> 100 µM (inactive),> 100 µM (inactive),> 100 µM (inactive),> 100 µM (inactive),,> 100 µM (inactive),> 100 µM (inactive),> 100 µM (inactive)
[O-][n+]1c2cc(CN3CCOCC3)c(CN3CCOCC3)cc2[n+]([O-])c2c(O)cccc21,3.44 µM (inactive),16.1 µM (inactive),1.83 µM (inactive),,3.1 µM (inactive),3.55 µM (inactive),2.9 µM (inactive),2.12 µM (inactive),5.93 µM (inactive)
COC(=O)NC(=O)c1cn(CCCOC(=O)CCCCCCCCC(=O)OCCCn2cc(C(=O)NC(=O)OC)c(=O)[nH]c2=O)c(=O)[nH]c1=O,> 100 µM (inactive),50.9 µM (inactive),19.3 µM (inactive),> 100 µM (inactive),> 100 µM (inactive),> 100 µM (inactive),> 100 µM (inactive),> 100 µM (inactive),> 100 µM (inactive)
CSc1nc2[nH]c(=O)c(C)nc2c(=O)[nH]1,> 100 µM (inactive),,> 100 µM (inactive),> 100 µM (inactive),> 100 µM (inactive),,> 100 µM (inactive),> 100 µM (inactive),> 100 µM (inactive)
CC(=O)NNc1nc(C)c(C(=O)/C=C/c2ccc(Cl)cc2)s1,> 100 µM (inactive),,,> 100 µM (inactive),,> 100 µM (inactive),> 100 µM (inactive),> 100 µM (inactive),> 100 µM (inactive)
CC(C(=O)c1ccccc1)C1(O)C(=O)Nc2ccc(Cl)cc21 (stereo unspecified),,,> 100 µM (inactive),56.8 µM (inactive),72.3 µM (inactive),12.8 µM (inactive),16.7 µM (inactive),> 100 µM (inactive),> 100 µM (inactive)
CCc1nc2cc(/N=N/c3c(O)ccc4ccccc34)ccc2[nH]1,17.1 µM (inactive),,,17.3 µM (inactive),11.5 µM (inactive),,18.9 µM (inactive),15 µM (inactive),19.6 µM (inactive)
CCOC(=O)CCn1cnc(N)n1,> 100 µM (inactive),> 100 µM (inactive),> 100 µM (inactive),> 100 µM (inactive),> 100 µM (inactive),> 100 µM (inactive),> 100 µM (inactive),> 100 µM (inactive),> 100 µM (inactive)
O=C1C=CC=CC2CC=C[C@@H](O)C12 (stereo partly specified),22.6 µM (inactive),,,18.1 µM (inactive),17.5 µM (inactive),,16.8 µM (inactive),25.1 µM (inactive),21 µM (inactive)
CN(CCN(C)C(=O)CCOS(C)(=O)=O)C(=O)CCOS(C)(=O)=O,74 µM (inactive),,> 100 µM (inactive),> 100 µM (inactive),> 100 µM (inactive),> 100 µM (inactive),,> 100 µM (inactive),> 100 µM (inactive)
CC(=O)NC(CCCCNCc1ccccc1)C(=O)NCc1ccccc1 (stereo unspecified),> 100 µM (inactive),,> 100 µM (inactive),> 100 µM (inactive),> 100 µM (inactive),,> 100 µM (inactive),> 100 µM (inactive),> 100 µM (inactive)
COC(=O)C(=O)CC(=O)CCn1ncc(Cl)c(Cl)c1=O,14.9 µM (inactive),8.55 µM (inactive),29 µM (inactive),3.15 µM (inactive),10 µM (inactive),,4.01 µM (inactive),10.3 µM (inactive),16.9 µM (inactive)
CN(C(=O)C12C3C4C1C1C2C3C41C(O)C(C)(C)C)C(C)(C)C (stereo unspecified),> 100 µM (inactive),> 100 µM (inactive),> 100 µM (inactive),> 100 µM (inactive),> 100 µM (inactive),,> 100 µM (inactive),> 100 µM (inactive),> 100 µM (inactive)
CCN(CC)CCNC(=O)c1ccccc1Nc1c(Cl)cccc1Cl,16.5 µM (inactive),,4.19 µM (inactive),11.6 µM (inactive),16.5 µM (inactive),,16.1 µM (inactive),11.7 µM (inactive),2.92 µM (inactive)
CCOC(=O)N1C(=O)C2C3C=CC(C2C1=O)C1C2C(=O)N(C(=O)OCC)C(=O)C2C31 (stereo unspecified),> 43.7 µM (inactive),> 100 µM (inactive),> 100 µM (inactive),> 45.9 µM (inactive),> 100 µM (inactive),43.4 µM (inactive),> 74.5 µM (inactive),> 87.3 µM (inactive),> 77.1 µM (inactive)
COc1cccc2c1[C@H]1OC(=O)NC1CCCCC2 (stereo partly specified),> 100 µM (inactive),,,> 100 µM (inactive),> 100 µM (inactive),> 100 µM (inactive),> 100 µM (inactive),> 100 µM (inactive),> 100 µM (inactive)
CC1=C(C)C(=O)c2c(cc3ccc4ccccc4n23)C1=O,> 100 µM (inactive),> 100 µM (inactive),,> 100 µM (inactive),> 100 µM (inactive),> 100 µM (inactive),> 100 µM (inactive),> 100 µM (inactive),
COc1ccc2c(CCNC(C)=O)c(C(C)=O)[nH]c2c1,> 100 µM (inactive),> 100 µM (inactive),,> 100 µM (inactive),> 100 µM (inactive),,,> 100 µM (inactive),> 100 µM (inactive)
CN(C)CCNC(=O)c1cccc2c(Nc3ccc(S(=O)(=O)N=C(N)N)cc3)c3ccccc3nc12,6.59 µM (inactive),,19.3 µM (inactive),2.34 µM (inactive),7.89 µM (inactive),,18.7 µM (inactive),69.8 µM (inactive),32.9 µM (inactive)
COC(=O)C1C(=O)O[C@@H](c2ccc(OC)cc2)C1C(=O)OC (stereo partly specified),> 100 µM (inactive),,> 100 µM (inactive),> 100 µM (inactive),> 100 µM (inactive),> 100 µM (inactive),> 100 µM (inactive),> 100 µM (inactive),> 100 µM (inactive)
C/C(CCN(C)C)=N/O,,,17.8 µM (inactive),0.8 µM (active),0.346 µM (active),0.4 µM (active),0.798 µM (active),,8.47 µM (inactive)
O=C(Nc1c(O)[nH]c(=S)[nH]c1=O)c1ccccc1,,,,> 100 µM (inactive),> 100 µM (inactive),> 100 µM (inactive),> 100 µM (inactive),> 100 µM (inactive),> 100 µM (inactive)
